Counter-ions that a name gives are not always drawn.
What follows are compounds tested on antisera generated in response to immunogen of Example 11 (assay: Competitive chemiluminescent biochip immunoassay, antisera raised against immunogen of Example 11, conjugate of Example 12). Settings: not given.
Format: binding, sheep

With CN1CCCC1c1cccnc1 (single isomer, unassigned; (-)) [(−)-nicotine] as the compound, how does the “Concentration exhibiting no cross-reactivity” value read?
The value was 22 µg/mL.

Which “Concentration exhibiting no cross-reactivity” value does the source give for O=c1n(CCC[N+]2([O-])CCN(c3cccc(Cl)c3)CC2)nc2ccccn12 [trazodone N-oxide] here?
The value was 0.4 µg/mL.

For Cl.NC1CCC(c2ccc(Cl)c(Cl)c2)c2ccccc21 (centres unmarked) [N-desmethyl sertraline HCl], which “Concentration exhibiting no cross-reactivity” value is on record?
The value was 10 µg/mL.

How did the “Concentration exhibiting no cross-reactivity” value turn out when CN1C(=O)CN=C(c2ccccc2)c2cc(Cl)ccc21 [diazepam] was run?
Its value is 3 µg/mL.

Which “Concentration exhibiting no cross-reactivity” value does the source give for Oc1cccc(N2CCNCC2)c1 [1-(3-hydroxyphenyl)-piperazine] here?
The value was 0.4 µg/mL.

Which “Concentration exhibiting no cross-reactivity” value does the source give for CC(=O)Nc1ccc(O)c(SC[C@H](NC(C)=O)C(=O)[O-])c1.[Na+] [3-(N-acetyl-L-cystein-s-yl) acetaminophen sodium salt] here?
The value was 250 µg/mL.

COc1ccc2cc([C@H](C)C(=O)O)ccc2c1 [naproxen] was tested. Which “Concentration exhibiting no cross-reactivity” value did it give?
Its value is 250 µg/mL.

CC(=O)Nc1ccc(OS(=O)(=O)[O-])cc1.[K+] [4-acetaminophen sulphate potassium salt] was tested. Which “Concentration exhibiting no cross-reactivity” value did it give?
Its value is 250 µg/mL.

Which “Concentration exhibiting no cross-reactivity” value does the source give for CC(=O)Nc1ccc(O)c(SC[C@H](N)C(=O)O)c1.O=C(O)C(F)(F)F [3-cysteinylacetaminophen trifluoroacetic acid salt] here?
Its value is 250 µg/mL.

With CN(C(=O)O[C@@H]1O[C@H](C(=O)O)[C@@H](O)[C@H](O)[C@H]1O)[C@H]1CC[C@@H](c2ccc(Cl)c(Cl)c2)c2ccccc21 [sertraline carbamoyl glocuronide] as the compound, how does the “Concentration exhibiting no cross-reactivity” value read?
The value was 3 µg/mL.

Same assay, conditions: biochip; relative to methylphenidate = 100

For CCN(CC)CCN1C(=O)CN=C(c2ccccc2F)c2cc(Cl)ccc21 [flurazepam], which “% cross reactivity” value is on record?
The value was less than 1%.

For c1ccc(C2(N3CCCCC3)CCCCC2)cc1 [PCP], which “% cross reactivity” value is on record?
The value was less than 0.1%.

CCOC(=O)[C@@H](c1ccccc1)[C@H]1CCCCN1.Cl (racemic) [rac-erythro-ethylphenidate HCl] was tested. Which “% cross reactivity” value did it give?
The value was 1.9%.

With CN[C@@H](C)[C@@H](O)c1ccccc1.Cl [(+)-pseudoephedrine HCl] as the compound, how does the “% cross reactivity” value read?
The value was 0.2%.

Same assay, conditions: value is the concentration at which no cross-reactivity was exhibited

Which “Concentration exhibiting no cross-reactivity” value does the source give for O=C(O)[C@H]1O[C@@H](OCC(Cl)(Cl)Cl)[C@H](O)[C@@H](O)[C@@H]1O [urochloralic acid] here?
The value was 100 µg/mL.

Which “Concentration exhibiting no cross-reactivity” value does the source give for CNCCC(Oc1ccc(C(F)(F)F)cc1)c1ccccc1 (centres unmarked) [fluoxetine HCl] here?
Its value is 10 µg/mL.

How did the “Concentration exhibiting no cross-reactivity” value turn out when O=C1Nc2ccc(Cl)cc2C(c2ccccc2Cl)=NC1O (centres unmarked) [lorazepam] was run?
Its value is 3 µg/mL.

With O=C1CN=C(c2ccccc2)c2cc(Cl)ccc2N1 [nordiazepam] as the compound, how does the “Concentration exhibiting no cross-reactivity” value read?
The value was 3 µg/mL.

Oc1ccc(C(F)(F)F)cc1 [p-trifluoromethylphenol] was tested. Which “Concentration exhibiting no cross-reactivity” value did it give?
The value was 2.5 µg/mL.

For CCC(=O)C(CC(C)N(C)C)(c1ccccc1)c1ccccc1 (centres unmarked) [methadone], which “Concentration exhibiting no cross-reactivity” value is on record?
Its value is 10 µg/mL.

Which “Concentration exhibiting no cross-reactivity” value does the source give for O=C(O)c1cc(-c2ccc(F)cc2F)ccc1O [diflusinal] here?
The value was 250 µg/mL.

For CCC(=O)OC(Cc1ccccc1)(c1ccccc1)C(C)CNC.O=C(O)/C=C\C(=O)O (single isomer, unassigned; (+)) [(+)-norpropoxyphene maleate], which “Concentration exhibiting no cross-reactivity” value is on record?
Its value is 10 µg/mL.

Which “Concentration exhibiting no cross-reactivity” value does the source give for COc1cccc(C2(O)CCCCC2CN(C)C)c1 (centres unmarked) [tramadol HCl] here?
The value was 10 µg/mL.

For COc1ccc2c(c1)[C@@]13CCCC[C@H]1[C@@H](C2)NCC3.Cl [3-methoxymorphinan HCl], which “Concentration exhibiting no cross-reactivity” value is on record?
The value was 0.25 µg/mL.

COc1ccc(NC(C)=O)cc1 [methacetin] was tested. Which “Concentration exhibiting no cross-reactivity” value did it give?
Its value is 250 µg/mL.

For COc1ccc2c3c1O[C@H]1C(=O)CC[C@H]4[C@@H](C2)N(C)CC[C@]314 [hydrocodone], which “Concentration exhibiting no cross-reactivity” value is on record?
Its value is 10 µg/mL.

How did the “Concentration exhibiting no cross-reactivity” value turn out when Cc1ccc(-c2nc3ccc(C)cn3c2CC(=O)N(C)C)cc1 [zolpidem tartrate] was run?
The value was 10 µg/mL.

COc1cccc(C2(O)CCCCC2CN)c1.Cl (racemic) [rac N-bisdesmethyl tramadol HCl] was tested. Which “Concentration exhibiting no cross-reactivity” value did it give?
Its value is 0.18 µg/mL.

O=C(O)CNC(=O)c1cc(O)ccc1O [gentisuric acid] was tested. Which “Concentration exhibiting no cross-reactivity” value did it give?
Its value is 250 µg/mL.

With COc1ccc(C(CN(C)C)C2(O)CCCCC2)cc1 (centres unmarked) [venlafaxine HCl] as the compound, how does the “Concentration exhibiting no cross-reactivity” value read?
Its value is 0.18 µg/mL.

Which “Concentration exhibiting no cross-reactivity” value does the source give for Br.CNCCC[C@@]1(c2ccc(F)cc2)OCc2cc(C#N)ccc21 [N-desmethyl escitalopram hydrobromide] here?
The value was 10 µg/mL.

For COc1ccc2c3c1O[C@H]1[C@@H](O)C=C[C@H]4[C@@H](C2)N(C)CC[C@@]341 [codeine], which “Concentration exhibiting no cross-reactivity” value is on record?
Its value is 0.25 µg/mL.

With CN1CCN(C(=O)OC2c3nccnc3C(=O)N2c2ccc(Cl)cn2)CC1 (centres unmarked) [zopiclone] as the compound, how does the “Concentration exhibiting no cross-reactivity” value read?
The value was 10 µg/mL.

CN1CC[C@]23CCCC[C@H]2[C@H]1Cc1ccc(O)cc13 [levorphanol] was tested. Which “Concentration exhibiting no cross-reactivity” value did it give?
The value was 0.25 µg/mL.

For O=C(O)c1ccccc1 [benzoic acid], which “Concentration exhibiting no cross-reactivity” value is on record?
The value was 250 µg/mL.

With COC(=O)c1ccccc1O [methyl salicylate] as the compound, how does the “Concentration exhibiting no cross-reactivity” value read?
Its value is 250 µg/mL.

Which “Concentration exhibiting no cross-reactivity” value does the source give for O=C[C@H](O)[C@@H](O)[C@H](O)[C@H](O)C(=O)O [D-glucuronic acid] here?
Its value is 60 µg/mL.

With CC(=O)Nc1ccc(O[C@@H]2O[C@H](C(=O)[O-])[C@@H](O)[C@H](O)[C@H]2O)cc1.[Na+] [4-acetamidophenyl β-D-glucuronide sodium salt] as the compound, how does the “Concentration exhibiting no cross-reactivity” value read?
Its value is 250 µg/mL.

With dextrorphan tartrate salt as the compound, how does the “Concentration exhibiting no cross-reactivity” value read?
Its value is 0.25 µg/mL.

COc1ccc2c3c1O[C@H]1C(=O)CC[C@@]4(O)[C@@H](C2)N(C)CC[C@]314 [oxycodone] was tested. Which “Concentration exhibiting no cross-reactivity” value did it give?
Its value is 10 µg/mL.

CC(C(=O)O)c1ccc(CC(C)(C)O)cc1 (racemic) [rac-2-hydroxy ibuprofen] was tested. Which “Concentration exhibiting no cross-reactivity” value did it give?
The value was 125 µg/mL.

For CCOc1ccc(NC(C)=O)cc1 [phenacetin], which “Concentration exhibiting no cross-reactivity” value is on record?
Its value is 250 µg/mL.

With O=C(O)c1cccc(O)c1O [2,3-dihydroxy benzoic acid] as the compound, how does the “Concentration exhibiting no cross-reactivity” value read?
Its value is 250 µg/mL.

Which “Concentration exhibiting no cross-reactivity” value does the source give for CN[C@H]1CC[C@@H](c2ccc(Cl)c(Cl)c2)c2ccccc21 [sertaline] here?
The value was 7.5 µg/mL.

How did the “Concentration exhibiting no cross-reactivity” value turn out when CCC(C)C(C)(COC(N)=O)COC(N)=O (centres unmarked) [mebutamate] was run?
The value was 0.35 µg/mL.

C[C@H](N)Cc1ccccc1 [D-amphetamine] was tested. Which “Concentration exhibiting no cross-reactivity” value did it give?
Its value is 10 µg/mL.

With CN[C@@H](C)Cc1ccccc1 [MAMP] as the compound, how does the “Concentration exhibiting no cross-reactivity” value read?
Its value is 2.5 µg/mL.

With O=C(O)C(Cl)(Cl)Cl [trichloroacetic acid] as the compound, how does the “Concentration exhibiting no cross-reactivity” value read?
The value was 100 µg/mL.

Which “Concentration exhibiting no cross-reactivity” value does the source give for NCCc1ccccc1.O=S(=O)(O)O [phenethylamine sulfate] here?
Its value is 250 µg/mL.

How did the “Concentration exhibiting no cross-reactivity” value turn out when CNCC1CCCCC1(O)c1cccc(O)c1 (racemic) [rac N,O-didesmethyl tramadol] was run?
Its value is 0.18 µg/mL.

Which “Concentration exhibiting no cross-reactivity” value does the source give for CC(C)Cc1ccc([C@@H](C)C(=O)O)cc1 [(R)-(−)-ibuprofen] here?
The value was 250 µg/mL.

With CN1C(=O)CC[C@H]1c1cccnc1 [(−)-cotinine] as the compound, how does the “Concentration exhibiting no cross-reactivity” value read?
The value was 22 µg/mL.

CC(=O)Oc1ccc2c3c1O[C@H]1[C@@H](OC(C)=O)C=C[C@H]4[C@@H](C2)N(C)CC[C@@]341 [heroin] was tested. Which “Concentration exhibiting no cross-reactivity” value did it give?
The value was 10 µg/mL.

With CC(C(=O)O)c1cccc(C(=O)c2ccccc2)c1 (centres unmarked) [ketoprofen] as the compound, how does the “Concentration exhibiting no cross-reactivity” value read?
Its value is 250 µg/mL.

With CC(C)Cc1ccc(CC(=O)O)cc1 [ibufenac] as the compound, how does the “Concentration exhibiting no cross-reactivity” value read?
Its value is 250 µg/mL.

CC(=O)N=C1C=CC(=O)C=C1 [N-acetylbenzoquinomeimine] was tested. Which “Concentration exhibiting no cross-reactivity” value did it give?
Its value is 125 µg/mL.

With CCCCCc1cc(O)c2c(c1)OC(C)(C)[C@@H]1CCC(C)=C[C@@H]21 [delta-9-THC] as the compound, how does the “Concentration exhibiting no cross-reactivity” value read?
The value was 10 µg/mL.

Which “Concentration exhibiting no cross-reactivity” value does the source give for CC(C)Cc1ccc(C(C)C(=O)O)cc1 (stereo not drawn) [S-(+)-ibuprofen] here?
The value was 250 µg/mL.

CN1C(=O)CN=C(c2ccccc2F)c2cc(N)ccc21 [7-NH flunitrazepam] was tested. Which “Concentration exhibiting no cross-reactivity” value did it give?
The value was 10 µg/mL.

For CNC(C)Cc1ccc2c(c1)OCO2 (centres unmarked) [MDMA], which “Concentration exhibiting no cross-reactivity” value is on record?
The value was 5 µg/mL.

Which “Concentration exhibiting no cross-reactivity” value does the source give for CCc1nn(CCCN2CCN(c3cccc(Cl)c3)CC2)c(=O)n1CC [etoperidone HCl] here?
The value was 0.4 µg/mL.

For COc1ccc2c(c1)[C@]13CCCC[C@@H]1[C@H](C2)N(C)CC3 [dextromethorphan hydrobromide monohydrate], which “Concentration exhibiting no cross-reactivity” value is on record?
Its value is 10 µg/mL.

With O=C(O)c1cc(O)ccc1O [gentisic acid] as the compound, how does the “Concentration exhibiting no cross-reactivity” value read?
Its value is 250 µg/mL.

How did the “Concentration exhibiting no cross-reactivity” value turn out when salicylic acid B-D glucuronide was run?
Its value is 125 µg/mL.

How did the “Concentration exhibiting no cross-reactivity” value turn out when CC(Cc1ccc(C(C)C(=O)O)cc1)C(=O)O (centres unmarked) [ibuprofen carboxylic acid] was run?
Its value is 250 µg/mL.

Which “Concentration exhibiting no cross-reactivity” value does the source give for Cc1ccccc1-n1c(C)nc2ccccc2c1=O [methaqualone] here?
The value was 10 µg/mL.

CCOC(=O)C1(c2ccccc2)CCNCC1 [normeperidine] was tested. Which “Concentration exhibiting no cross-reactivity” value did it give?
The value was 1 µg/mL.

For CN(C)CCC[C@]1(c2ccc(F)cc2)OCc2cc(C#N)ccc21.O=C(O)C(=O)O [(R)-citalopram oxalate], which “Concentration exhibiting no cross-reactivity” value is on record?
The value was 1.5 µg/mL.

Which “Concentration exhibiting no cross-reactivity” value does the source give for Nc1ccc(C(=O)O)c(O)c1 [4-aminosalicylic acid] here?
The value was 250 µg/mL.

CCN(CC)C(=O)[C@@H]1C=C2c3cccc4[nH]cc(c34)C[C@H]2N(C)C1 [LSD] was tested. Which “Concentration exhibiting no cross-reactivity” value did it give?
The value was 10 µg/mL.

With O=C(Oc1ccccc1C(=O)O)c1ccccc1O [salsalate] as the compound, how does the “Concentration exhibiting no cross-reactivity” value read?
The value was 250 µg/mL.

For CCOc1ccc(N)cc1 [p-phenetidine], which “Concentration exhibiting no cross-reactivity” value is on record?
Its value is 106.35 µg/mL.

With Oc1ccc2c(c1)[C@@]13CCCC[C@H]1[C@@H](C2)NCC3 [N-desmethyl dextorphan] as the compound, how does the “Concentration exhibiting no cross-reactivity” value read?
Its value is 0.25 µg/mL.

For CN1C(=O)C(O)N=C(c2ccccc2)c2cc(Cl)ccc21 (centres unmarked) [temazepam], which “Concentration exhibiting no cross-reactivity” value is on record?
The value was 3 µg/mL.

O=c1n(CCCN2CCN(c3cccc(Cl)c3)CC2)nc2ccccn12 [trazodone HCl] was tested. Which “Concentration exhibiting no cross-reactivity” value did it give?
Its value is 10 µg/mL.

Which “Concentration exhibiting no cross-reactivity” value does the source give for CCN(C(C)=O)c1cccc(-c2ccnc3c(C#N)cnn23)c1 [zaleplon] here?
The value was 10 µg/mL.

c1ccc(CN2CCNCC2)cc1 [1-benzylpiperiazine] was tested. Which “Concentration exhibiting no cross-reactivity” value did it give?
Its value is 10 µg/mL.

Source: patent US9612237B2, “Ritalinic acid immunoassay” (Randox Laboratories Limited, priority 2013, dated 2017)
